Measured values: ChEMBL document CHEMBL1152088, “Activated ketones as potent reversible inhibitors of interleukin-I converting enzyme” (Bioorg Med Chem Lett, 1994)

These molecules were tested against T1, Caspase-1 (Homo sapiens, UniProt P29466) (assay: Tested for inhibition of cysteine proteinase IL-1 beta converting enzyme (ICE)).
T1 sequence (P29466 whole entry): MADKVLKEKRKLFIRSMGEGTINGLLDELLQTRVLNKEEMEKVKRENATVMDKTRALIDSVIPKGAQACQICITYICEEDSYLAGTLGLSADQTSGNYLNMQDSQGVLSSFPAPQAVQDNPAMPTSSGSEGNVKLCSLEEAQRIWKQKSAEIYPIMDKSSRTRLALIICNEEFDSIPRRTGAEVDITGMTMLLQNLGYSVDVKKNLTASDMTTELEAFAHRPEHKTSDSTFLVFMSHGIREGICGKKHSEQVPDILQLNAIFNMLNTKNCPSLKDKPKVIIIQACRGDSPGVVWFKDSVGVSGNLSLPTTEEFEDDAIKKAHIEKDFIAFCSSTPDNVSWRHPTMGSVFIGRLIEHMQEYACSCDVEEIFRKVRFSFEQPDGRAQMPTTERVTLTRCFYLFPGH

Question: Which Ki does the source give for `CC(C)[C@H](NC(=O)CCc1ccccc1)C(=O)N[C@@H](C)C(=O)NC(CC(=O)O)C(=O)COC(=O)CCc1ccccc1` (stereo partly drawn) here?
Answer: 2.7 nM

Question: For `CC(C)[C@H](NC(=O)CCc1ccccc1)C(=O)N[C@@H](C)C(=O)NC(CC(=O)O)C(=O)CS(=O)(=O)CCCc1ccccc1` (stereo partly drawn), which Ki is on record?
Answer: 113 nM

Question: How did the Ki turn out when `CC(C)[C@H](NC(=O)CCc1ccccc1)C(=O)N[C@@H](C)C(=O)NC(CC(=O)O)C(=O)CNCCc1ccccc1` (stereo partly drawn) was run?
Answer: 4.7 nM

Question: `CC(C)[C@H](NC(=O)CCc1ccccc1)C(=O)N[C@@H](C)C(=O)NC(CC(=O)O)C(=O)CCCCc1ccccc1` (stereo partly drawn) was tested. Which Ki did it give?
Answer: 100 nM

Question: `CC(C)[C@H](NC(=O)CCc1ccccc1)C(=O)N[C@@H](C)C(=O)NC(CC(=O)O)C(=O)C[S+]([O-])CCCc1ccccc1` (stereo partly drawn) was tested. Which Ki did it give?
Answer: 27 nM

Question: `CC(C)[C@H](NC(=O)CCc1ccccc1)C(=O)N[C@@H](C)C(=O)NC(CC(=O)O)C(=O)COC(=O)NCc1ccccc1` (stereo partly drawn) was tested. Which Ki did it give?
Answer: 120 nM

Question: `CC(C)[C@H](NC(=O)CCc1ccccc1)C(=O)N[C@@H](C)C(=O)NC(CC(=O)O)C(=O)CN(CCc1ccccc1)Cc1ccccc1` (stereo partly drawn) was tested. Which Ki did it give?
Answer: 60 nM

Question: With `CC(C)[C@H](NC(=O)CCc1ccccc1)C(=O)N[C@@H](C)C(=O)NC(CC(=O)O)C(=O)CSCCCc1ccccc1` (stereo partly drawn) as the molecule, how does the Ki read?
Answer: 11 nM
